Values quoted from earlier work as cited in patent US9339581B2, “Absorbent and absorbent article provided therewith” (UNICHARM CORPORATION, priority 2012, dated 2016).

Conditions: at 20° C.; cited from earlier work

Q: Which vapor pressure does the source give for CCCCC(=O)CCCC [5-nonanone] here?
A: Its vapor pressure is “about 230 Pa”.
